Read-outs that look alike come from different tables or passages of the source. Values belong to the compound of their own block, whether it stands above or below them.
What was measured:
[1] = system: HepG2; design: method as in Albrecht 2019; settings: In vitro Assay; ref Albrecht 2019; cited from earlier work
[2] = ref Chen 2011; cited from earlier work
[3] = system: human hepatocytes; settings: cited from earlier work; for Structural based (HCI): In vitro Assay, ref Xu 2008
[4] = system: PHH; settings: In vitro Assay; ref Albrecht 2019; cited from earlier work
[5] = system: primary human hepatocytes, NIH3T3 fibroblasts, BSEP, CYP3A4; settings: In vitro Assay; ref Schadt 2015; cited from earlier work
[6] = cited from earlier work
[7] = system: THLE or HepG2 cells, isolated mitochondria, BSEP; settings: In vitro Assay; ref Aleo 2019; cited from earlier work
[8] = cited from earlier work; remark: listed apart in the source
[9] = plasma free fraction; cited from earlier work
[10] = system: hLiMTs
[11] = Plasma free fraction (fu) and unbound Cmax (Cmax,u); format: in vitro ADME, human; settings: unbound plasma Cmax
[12] = system: HepG2 cells; settings: cited from earlier work
[13] = system: HepG2 cells; settings: cited from earlier work; remark: listed apart in the source
[14] = system: hLiMTs; assay: Combined HCI (HCS) and cellular ATP 3D assay in hLiMTs
[15] = system: HepaRG spheroids
[16] = system: hLiMTs; settings: cited from earlier work
[17] = system: HepaRG spheroids; assay: Combined HCI (HCS) and cellular ATP 3D assay in HepaRG spheroids; settings: HepaRG; for AC50 / minimal effective concentration: Homo sapiens
[18] = system: PHH; settings: cited from earlier work
[19] = system: PHH spheroids; settings: cited from earlier work
[20] = read-out: Human plasma Cmax; total plasma Cmax.tot, median of 9 literature references; cited from earlier work
[21] = system: HepG2 cells, primary human hepatocytes; settings: In vitro Assay; ref Garside 2014; cited from earlier work
[22] = In vitro Assay, ref Persson 2013
[23] = In vitro Assay, ref Proctor 2017

SMILES: Clc1cccc(Cl)c1N=C1NCCN1 [clonidine]
Cytotoxicity HepG2 48 hrs [1]: -VE | DILI Score (FDA) (1-8) [2]: 3 | Structural based (HCI) [3]: -VE | Cytotoxicity PHH 48 hrs [4]: -VE | Cellular toxicity (3T3 cells) [5]: -VE | Combined Assay [5]: -VE | GSH adduct HML [5]: -VE | Hepatocyte cellular toxicity [5]: -VE | MitoTox 3T3 [5]: -VE | TDI CYP3A4 [5]: -VE | hBSEP inhibition [5]: -VE | In vivo DILI ([6]; ref Albrecht 2019): -VE | In vivo DILI ([6]; ref Schadt 2015): -VE | In vivo DILI ([6]; ref Xu 2008): +VE | Partition Hybrid HRM Score [7]: -VE | Ro2 Hybrid HRM Score [7]: -VE | DILI +VE (5-8), DILI -VE (-4) ([8]; ref Chen 2016): -VE | DILI severity category ([8]; ref Chen 2016): Ambiguous DILI-concern

Human plasma Cmax,u [11]: 0.552 µM | hLiMTs <25x Avg Cmax ATP ([14]; hLiMTs, ATP endpoint, cut-off <25x Avg Cmax): -ve | hLiMTs <100x Avg Cmaxu ATP ([14]; hLiMTs, ATP endpoint, cut-off <100x Avg Cmaxu): -ve | hLiMTs <25x Avg Cmax HCS ([14]; hLiMTs, HCS endpoints, cut-off <25x Avg Cmax): +ve | hLiMTs <100x Avg Cmaxu HCS ([14]; hLiMTs, HCS endpoints, cut-off <100x Avg Cmaxu): +ve (<100x Avg Cmaxu) | hLiMTs <25x Avg Cmax All ([14]; hLiMTs, all endpoints (ATP and HCS), cut-off <25x Avg Cmax): +ve | hLiMTs Cmax max All ([14]; hLiMTs, all endpoints, Cmax max used): +ve | hLiMTs Cmax min All ([14]; hLiMTs, all endpoints, Cmax min used): -ve | hLiMTs <10 uM All ([14]; hLiMTs, all endpoints, cut-off <10 uM): -ve | hLiMTs <100x Avg Cmaxu All ([14]; hLiMTs, all endpoints, cut-off <100x Avg Cmaxu): +ve (<100x Avg Cmaxu) | HepaRG <25x Avg Cmax ATP ([17]; ATP endpoint, cut-off <25x Avg Cmax): +ve | HepaRG <100x Avg Cmaxu ATP ([17]; ATP endpoint, cut-off <100x Avg Cmaxu): +ve (<100x Avg Cmaxu) | HepaRG <25x Avg Cmax HCS ([17]; HCS endpoints, cut-off <25x Avg Cmax): +ve | HepaRG <100x Avg Cmaxu HCS ([17]; HCS endpoints, cut-off <100x Avg Cmaxu): +ve (<100x Avg Cmaxu) | HepaRG <25x Avg Cmax All ([17]; all endpoints (ATP and HCS), cut-off <25x Avg Cmax): +ve | HepaRG Cmax max All ([17]; all endpoints, Cmax max used): +ve | HepaRG Cmax min All ([17]; all endpoints, Cmax min used): -ve | HepaRG <10 uM All ([17]; all endpoints, cut-off <10 uM): -ve | HepaRG <100x Avg Cmaxu All ([17]; all endpoints, cut-off <100x Avg Cmaxu): +ve (<100x Avg Cmaxu)
SMILES: O=C1CN(/N=C/c2ccc(-c3ccc([N+](=O)[O-])cc3)o2)C(O)=N1 [dantrolene]
fu [9]: 0.140 | DILI prediction hLiMTs (HCS-MEC) [10]: +VE (MEC < 25 × Cmax.tot cut-off) | DILI Score (FDA) (1-8) [2]: 8 | Structural based (HCI) ([12]; In vitro Assay, ref O'Brien 2006): +VE | DILI in vitro assay prediction, O'Brien (2006) ([12]; Structural based (HCI), HepG2, ref O'Brien et al. 2006): +VE (lowest HCI endpoint IC50 (or in the absence of dose–response < 100 µM) < 30 × total human plasma exposure levels (Cmax.tot)) | Structural based (HCI) [3]: +VE | DILI in vitro assay prediction, Xu (2008) ([3]; Structural based (HCI), human hepatocytes, ref Xu et al. 2008): +VE | Cluser analysis [13, 22]: -VE | Structural based (HCI) [13, 22]: +VE | DILI in vitro assay prediction, Persson (2013) ([13]; Structural based (HCI), HepG2, ref Persson et al. 2013): -VE | DILI prediction hLiMTs, HCI alone ([14]; HCS endpoints only, 25 × Cmax.tot cut-off): detection | AC50 ([14]; Homo sapiens, read-out: HCS endpoint AC50): 51 µM | minimal effective concentration ([14]; Homo sapiens, read-out: HCS endpoint MEC): 10.5 µM | DILI prediction hLiMTs, ATP alone ([14]; cellular ATP only, 25 × Cmax.tot cut-off): unpredicted | DILI prediction HepaRG spheroids (HCS-MEC) [15]: +VE (MEC < 25 × Cmax.tot cut-off) | hLiMTs ATP <100uM [16, 23]: -VE | hLiMTs/100uM, Proctor (2017) ([16]; hLiMTs, ATP, IC50 threshold 100 µM, ref Proctor et al. 2017): -VE | Assigned DILI category ([6]; Chen et al. 2016 or literature alignment, ref Chen et al. 2016): 3 | In vivo DILI ([6]; […]): +VE | In vivo DILI ([6]; ref Garside 2014): +VE | In vivo DILI ([6]; ref O'Brien 2006): +VE | In vivo DILI ([6]; ref Persson 2013): +VE | In vivo DILI ([6]; ref Proctor 2017): +VE | In vivo DILI ([6]; ref Vorrink 2018): +VE | In vivo DILI ([6]; ref Williams 2019): +VE | In vivo DILI ([6]; ref Xu 2008): +VE | AC50 ([17]; read-out: ATP endpoint AC50): 100 µM | minimal effective concentration ([17]; read-out: ATP endpoint MEC): 53.2 µM | AC50 ([17]; read-out: HCS endpoint AC50): 174 µM | minimal effective concentration ([17]; read-out: HCS endpoint MEC): 14.5 µM | DILI severity category (Chen et al. [2016]) ([8]; LTKB DILIrank category, ref Chen et al. 2016): Most | DILI severity category (Chen 2016) ([8]; human DILI classification, LTKB DILIrank, ref Chen et al. 2016): Most | DILI severity category ([8]; human DILI severity, ref Chen et al.): Most | DILI +VE (5-8), DILI -VE (-4) ([8]; ref Chen 2016): +VE | DILI severity category ([8]; ref Chen 2016): vMost-DILI-Concern | PHH/100uM, Proctor (2017) ([18]; 2D PHH, ATP, IC50 threshold 100 µM, ref Proctor et al. 2017): -VE | PHH ATP <100uM [18, 23]: -VE | hLiMTs ATP <20 x Cmax ([19]; In vitro Assay, ref Vorrink 2018): +VE (IC20 < 20 × Cmax.tot cut-off) | DILI in vitro assay prediction, Vorrink (2018) ([19]; PHH spheroids, ATP, 14 days, IC20 < 20 × Cmax.tot, ref Vorrink et al. 2018): +VE (IC20 < 20 × Cmax.tot cut-off) | Cmax [20]: 3.95 µM | Cluster 1-6 +VE Assay [21]: -VE

SMILES: OCCOCCN1CCN(C(c2ccccc2)c2ccc(Cl)cc2)CC1 (stereo not drawn) [hydroxyzine]
Cytotoxicity HepG2 48 hrs [1]: -VE | Cytotoxicity PHH 48 hrs [4]: -VE | In vivo DILI ([6]; […]): -VE | In vivo DILI ([6]; ref Albrecht 2019): -VE | In vivo DILI ([6]; ref Aleo 2019): -VE | Partition Hybrid HRM Score [7]: +VE | Ro2 Hybrid HRM Score [7]: +VE | DILI +VE (5-8), DILI -VE (-4) ([8]; ref Chen 2016): -VE | DILI severity category ([8]; ref Chen 2016): vNo-DILI-Concern
